From patent publication US20230277549A1, “NOTCH SIGNALING INHIBITORS FOR TREATING OBESITY AND METABOLIC DISORDERS” (Purdue Research Foundation, priority 2020, published 2023)
Entries after “also recorded” stand apart in the source; their conditions may differ.

Legend:
[1] = system: Notch signaling (target gene Hes1); test: Notch inhibition: Hes1 mRNA by real-time qPCR in 3T3-L1 preadipocytes; format: cell-based; conditions: for mRNA expression of Hes1: 3T3-L1 preadipocytes, 1 μM, 12 h, real-time qPCR; for dose dependence of the inhibitory effect on Hes1 expression: 0.5, 1 and 10 μM
Protocol: (§1) Cell culture and drug treatment. 3T3-L1 preadipocytes were cultured in Dulbecco's modified Eagle medium (DMEM) supplemented with 10% fetal bovine serum (FBS) and 1% antibiotics (penicillin and streptomycin) at 37° C., 5% CO2, and 95% relative humidity. The medium was routinely changed every two days and cells were separated by trypsin before reaching confluency. Beige adipocyte differentiation was induced by treating confluent preadipocytes with the adipogenic induction medium containing DMEM, 10% FBS, 0.5 mM isobutylmethylxanthine, 1 μM dexamethasone, 1.75 μM insulin, and 1 μM rosiglitazone. Three days after induction, medium was switched to the differentiation medium containing DMEM, 10% FBS, 850 nM insulin, and 10 nM triiodothyronine until adipocytes matured. For the drug treatment, a series of GSIs were added to the cells in culture medium at the same final drug concentrations of 0.5, 1, and 10 μM, respectively, and cells were induced for differentiation.
(§2) RNA extraction, cDNA synthesis, and real-time qPCR. Total RNA was extracted from cells using TRIzol (Thermo Fisher Scientific, Waltham, Mass., USA) in accordance with the manufacturer's protocol. RNA was treated with RNase-free DNase I to remove contaminating genomic DNA and the purity as well as concentration of extracted RNA were determined by a spectrophotometer NanoDrop 2000c (Thermo Fisher Scientific, Waltham, Mass., USA). Subsequently, 2 μg of RNA was reverse transcribed to cDNA using random hexamer primers with M-MLV reverse transcriptase (Invitrogen, Carlsbad, Calif., USA). Real-time qPCR was performed in the Roche Light Cycler 480 PCR system (Roche, Basel, Switzerland) with SYBR Green master mix.
(§3) The 2^−ΔΔCT method was used to analyze the relative changes of gene expression after normalization to the expression of β-Actin.
To determine the impact of GSIs on inhibition of Notch signaling, 3T3-L1 preadipocytes were treated with a series of GSIs (see Table 1) at a concentration of 1 μM and the change in mRNA expression of Hes1, a Notch downstream transcriptional target gene, was evaluated using real-time qPCR.
To further examine the relationship between drug concentration and inhibitory effect of GSIs, cells were treated with the four most promising inhibitors (i.e., RO4929097, PF-03084014, LY3039478, and BMS-906024) at three gradient concentrations (0.5, 1, and 10 μM).
Effect of RO4929097-PLGA NPs on the Notch signaling target gene. 3T3-L1 preadipocytes were treated with DMSO, PLGA NPs (0.1 mg/mL), DBZ (10 μM), RO4929097 (1 μM) or RO4929097-PLGA NPs (0.1 mg/ml) for 12 h at 37° C. in a 5% CO2 incubator. The Notch target Hes1 mRNA expression was analyzed by qRT-PCR (FIG. 8). Each bar is the mean±SEM of 4 to 5 replicates in each group and the data were analyzed by one-way ANOVA followed by Tukey's post hoc comparison test. Asterisks refer to statistical difference between the indicated treatment groups (*p<0.05, **p<0.01, and ***p<0.001).

3T3-L1 preadipocytes = test: Cell viability, MTS assay; conditions: 0.5, 1 and 10 μM, 12 h
Protocol: Assessment of cell viability. In vitro cell viability after incubation with various GSIs at three concentrations was determined using an MTS assay, which is based on the mitochondrial conversion of a tetrazolium salt. 3T3-L1 preadipocytes were seeded onto 96-well plates at a density of 1×10^4 cells per well and cultured in 5% CO2 at 37° C. for 48 h. GSIs were then added to the cells in culture medium at the same final drug concentrations of 0.5, 1, and 10 μM, respectively, and cells were further incubated at 37° C. for 12 h. Subsequently, 20 μL of CellTiter 96® AQueous one solution reagent was added to each well in 100 μL of culture medium and incubated at 37° C. in a humidified, 5% CO2 atmosphere for 2 h. The absorbance was measured using a Tecan Spark™ 10M microplate reader (Tecan, Mannedorf, Switzerland) at a wavelength of 490 nm with background subtraction at 680 nm. Cells incubated with 0.1% Triton X-100 and dimethyl sulfoxide (DMSO) in culture medium served as positive and negative controls, respectively.
Effects of GSIs on cell viability. To investigate effects of GSIs on cell viability, 3T3-L1 preadipocytes were treated with GSIs at three gradient concentrations (0.5, 1, and 10 μM) for 12 h.

[2] = system: differentiated 3T3-L1 cells; test: mRNA expression of adipogenic, mitochondrial and browning marker genes by real-time qPCR; format: cell-based; conditions: for increase of mRNA expression of Tmem26: 0.5, 1 and 10 μM, highest dose significant versus control
Protocol: as §1, §2, §3

[3] = system: UCP1, PPARγ, and C/EBPα in differentiated 3T3-L1 cells; test: Western blot of UCP1, PPARγ and C/EBPα protein; format: cell-based; conditions: for protein expression of UCP1 / decrease of the upregulated UCP1 protein expression: western blot; for decrease of the upregulated UCP1 protein expression: increasing the concentration from 1 to 10 μM
Protocol: as §1
Protein extraction and western blotting. Total protein was extracted from cells using RIPA buffer containing 25 mM Tris-HCl (pH 8.0), 150 mM NaCl, 1 mM EDTA, 0.5% NP-40, 0.5% sodium deoxycholate and 0.1% SDS. Protein concentrations were determined by Pierce BCA Protein Assay Reagent (Pierce Biotechnology, Waltham, Mass., USA). Proteins were separated by SDS-PAGE and transferred to a polyvinylidene fluoride membrane (Millipore, Burlington, Mass., USA). The membrane was then blocked with 5% fat-free milk for 1 h at room temperature and incubated with primary antibodies in 5% milk overnight at 4° C. as well as secondary antibodies for 1 h at room temperature. Primary antibodies, including UCP1 (1:1000 dilution), C/EBPα (1:500 dilution), PPARγ (1:500 dilution), and β-Actin (1:5000 dilution), were used. HRP-conjugated secondary antibodies, including anti-rabbit and anti-mouse IgG, were also used at a dilution of 1:10,000. A luminol reagent for enhanced chemiluminescence detection of western blots (Santa Cruz Biotechnology, Dallas, Tex., USA) was employed and signals were detected with a FluorChem R imaging system (ProteinSimple, San Jose, Calif., USA).
The protein expression of adipogenic markers, such as PPARγ and C/EBPα, was also evaluated.

[4] = system: UCP1 in differentiated 3T3-L1 cells; test: UCP1 immunofluorescence staining; format: cell-based; conditions: 1 μM
Protocol: Immunofluorescence staining. After washing with phosphate-buffered saline (PBS), cells were fixed with 4% PFA, quenched with glycine (100 mM glycine and 0.1% sodium azide in PBS), and blocked with PBS containing 2% BSA, 5% goat serum, and 0.2% Triton X-100 for 1 h at room temperature. Subsequently, cells were incubated with the UCP1 antibody diluted at 1:500 in the same blocking buffer overnight at 4° C. and the Alexa Fluor® 488 conjugated goat anti-rabbit IgG (1:1000 dilution) for 1 h at room temperature. Nuclei were counterstained with 4′,6-diamidino-2-phenylindole (DAPI, 1 μg/mL), which was premixed with the secondary antibody.

[5] = system: Notch (Hes1) in human tumor-derived cells; conditions: cited from earlier work
[6] = all the concentrations (0.5, 1, 10 μM)

Row | SMILES | mRNA expression of Hes1 [1] | dose dependence of the inhibitory effect on Hes1 expression [1] | cell viability / cytotoxicity (3T3-L1 preadipocytes) | increase of mRNA expression of Tmem26 [2] | protein expression of UCP1 ([3]; 1 μM) | further results
1 | O=C(O)CC[C@H]1CC[C@@](c2cc(F)ccc2F)(S(=O)(=O)c2ccc(Cl)cc2)CC1 [MK-0752] | did not significantly decrease; also recorded: relatively moderate inhibitory effect | – | – | – | – | –
2 | C[C@H](NC(=O)CCC(F)(F)F)C(=O)N[C@@H]1C(=O)N(CCO)c2ncccc2-c2ccccc21 [LY3039478] | significantly inhibited | more significant with increasing the drug concentration | did not result in any significant cytotoxicity | in a dose-dependent manner | significant upregulation | mRNA expression of Cox5B ([2]; 10 μM): Significant upregulation; mRNA expression of Ppargc1α ([2]; 10 μM): significant changes; protein expression of C/EBPα [3, 6]: significantly upregulated; protein expression of UCP1 ([3]; high concentration of 10 μM): did not significantly change
3 | CN1C(=O)[C@@H](NC(=O)[C@H](CCC(F)(F)F)[C@H](CCC(F)(F)F)C(N)=O)N=C(c2ccccc2)c2ccccc21 [BMS-906024] | significantly inhibited | more significant with increasing the drug concentration | – | in a dose-dependent manner | minimal impact | protein expression of C/EBPα ([3]; 1 μM): significantly upregulated; UCP1 positive adipocytes (UCP1 expression) [4]: minimal efficiency
4 | CC(C)[C@H](O)C(=O)N[C@@H](C)C(=O)N[C@@H]1C(=O)N(C)CCc2ccccc21 [LY450139] | did not significantly decrease | – | – | – | – | –
5 | NC(=O)[C@@H](CCC(F)(F)F)N(Cc1ccc(-c2ncon2)cc1F)S(=O)(=O)c1ccc(Cl)cc1 [BMS-708163] | did not significantly decrease; also recorded: relatively moderate inhibitory effect | – | – | – | – | –
6 | CCC[C@H](N[C@H]1CCc2cc(F)cc(F)c2C1)C(=O)Nc1cn(C(C)(C)CNCC(C)(C)C)cn1 [PF-03084014] | significantly inhibited | more significant with increasing the drug concentration | decreased with increasing the drug concentration | in a dose-dependent manner | significantly upregulated | mRNA expression of Cox5B ([2]; 1 μM): Significant upregulation; mRNA expression of Ppargc1α ([2]; 10 μM): significant changes; decrease of the upregulated UCP1 protein expression [3]: around 50%
7 | CC(C)(C(=O)NCC(F)(F)C(F)(F)F)C(=O)N[C@@H]1C(=O)Nc2ccccc2-c2ccccc21 [RO4929097] | significantly inhibited | did not result in a dose-dependent depression | decreased with increasing the drug concentration | – | significantly upregulated | mRNA expression of Cox5B [2, 6]: increased; protein expression of C/EBPα [3, 6]: significantly upregulated; decrease of the upregulated UCP1 protein expression [3]: around 50%; concentration above which no further reduction in mRNA level of Hes1 [5]: > 1 µM; concentration above which no further reduction in protein level of Hes1 [5]: higher than 0.5 μM; concentration at which dose-dependent inhibition of Notch begins [5]: ≥ 0.1 µM
